Reference: ChEMBL document CHEMBL5465560, “Selectivity Literature for EUbOPEN Chemogenomic Library” (2024)

Columns and labels:
[1] = target: Casein kinase I isoform alpha (Homo sapiens, UniProt P48729); assay: Selectivity interaction (Kinase panel (KiNativ target engagement assay in Jurkat cells)) EUB0001635a CSNK1A1; format: cell-based; conditions: Selectivity number of off-targets 0.0, Selectivity number of targets 233.0, Source Knowledge https://www.sciencedirect.com/science/article/pii/S2451945619300674?via%3Dihub, at 1 µM
[2] = target: RAF proto-oncogene serine/threonine-protein kinase (Homo sapiens) (UniProt P04049); conditions: at 10 µM
[3] = target: T1, Hormonally up-regulated neu tumor-associated kinase (Homo sapiens) (UniProt P57058); assay: Selectivity interaction (KinomeScan (DiscoverX)) EUB0000045b HUNK
T1 sequence (whole entry): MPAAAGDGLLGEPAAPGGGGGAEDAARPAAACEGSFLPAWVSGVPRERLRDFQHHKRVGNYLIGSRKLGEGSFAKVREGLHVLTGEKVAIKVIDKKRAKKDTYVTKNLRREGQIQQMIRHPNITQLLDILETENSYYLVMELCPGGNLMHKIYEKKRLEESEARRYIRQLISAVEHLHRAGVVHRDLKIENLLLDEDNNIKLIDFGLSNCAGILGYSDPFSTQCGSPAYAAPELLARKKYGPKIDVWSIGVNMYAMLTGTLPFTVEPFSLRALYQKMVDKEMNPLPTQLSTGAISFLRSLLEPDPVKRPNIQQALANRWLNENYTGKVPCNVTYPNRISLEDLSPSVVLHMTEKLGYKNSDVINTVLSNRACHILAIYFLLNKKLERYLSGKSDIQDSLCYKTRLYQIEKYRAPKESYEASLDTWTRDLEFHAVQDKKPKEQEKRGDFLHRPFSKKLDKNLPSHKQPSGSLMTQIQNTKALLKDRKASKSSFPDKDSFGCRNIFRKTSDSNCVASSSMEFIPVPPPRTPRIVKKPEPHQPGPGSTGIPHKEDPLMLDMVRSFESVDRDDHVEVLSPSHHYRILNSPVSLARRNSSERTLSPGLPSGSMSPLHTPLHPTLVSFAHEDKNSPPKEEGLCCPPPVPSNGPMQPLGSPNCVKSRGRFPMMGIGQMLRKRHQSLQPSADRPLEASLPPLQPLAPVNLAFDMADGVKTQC

[4] = target: T2, Cytoplasmic tyrosine-protein kinase BMX (Homo sapiens) (UniProt P51813); assay: Selectivity interaction (KinomeScan (DiscoverX)) EUB0000666a BMX; conditions: at 10 µM
T2 sequence (whole entry): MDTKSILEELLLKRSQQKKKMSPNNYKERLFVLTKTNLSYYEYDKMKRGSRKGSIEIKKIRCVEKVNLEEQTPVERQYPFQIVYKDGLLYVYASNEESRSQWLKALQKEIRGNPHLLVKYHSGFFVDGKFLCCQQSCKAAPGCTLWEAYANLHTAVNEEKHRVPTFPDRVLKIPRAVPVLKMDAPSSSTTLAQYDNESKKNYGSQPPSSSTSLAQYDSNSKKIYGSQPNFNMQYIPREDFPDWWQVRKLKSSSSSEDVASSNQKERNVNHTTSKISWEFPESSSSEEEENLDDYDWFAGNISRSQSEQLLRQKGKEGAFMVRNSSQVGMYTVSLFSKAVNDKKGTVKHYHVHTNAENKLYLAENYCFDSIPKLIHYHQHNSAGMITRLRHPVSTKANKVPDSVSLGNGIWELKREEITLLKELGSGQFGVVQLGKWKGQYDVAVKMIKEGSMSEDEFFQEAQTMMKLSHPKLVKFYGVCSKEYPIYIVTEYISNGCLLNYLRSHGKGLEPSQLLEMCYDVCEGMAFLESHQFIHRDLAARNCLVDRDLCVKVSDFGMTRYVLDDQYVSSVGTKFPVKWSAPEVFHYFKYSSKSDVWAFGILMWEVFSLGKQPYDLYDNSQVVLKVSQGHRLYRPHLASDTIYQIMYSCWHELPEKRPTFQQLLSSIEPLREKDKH

[5] = target: Acetylcholinesterase (Homo sapiens) (UniProt P22303); assay: Selectivity interaction (Panel of non-epigenetic targets (kinases, GPCRs, ion channels, and transporters, Eurofins) ) EUB0000271b ACHE; conditions: at 1 µM
[6] = target: Vascular endothelial growth factor receptor 1 (Homo sapiens) (UniProt P17948); assay: Selectivity interaction (ProQinase) EUB0000171b FLT1
[7] = target: Calcium/calmodulin-dependent protein kinase type 1 (Homo sapiens) (UniProt Q14012); assay: Selectivity interaction (KinomeScan (DiscoverX)) EUB0001619a CAMK1; conditions: at 1 µM
[8] = target: T3, Dual specificity mitogen-activated protein kinase kinase 5 (Homo sapiens) (UniProt Q13163); assay: Selectivity interaction (KinomeScan (DiscoverX)) EUB0000607a MAP2K5; conditions: at 10 µM
T3 sequence (whole entry): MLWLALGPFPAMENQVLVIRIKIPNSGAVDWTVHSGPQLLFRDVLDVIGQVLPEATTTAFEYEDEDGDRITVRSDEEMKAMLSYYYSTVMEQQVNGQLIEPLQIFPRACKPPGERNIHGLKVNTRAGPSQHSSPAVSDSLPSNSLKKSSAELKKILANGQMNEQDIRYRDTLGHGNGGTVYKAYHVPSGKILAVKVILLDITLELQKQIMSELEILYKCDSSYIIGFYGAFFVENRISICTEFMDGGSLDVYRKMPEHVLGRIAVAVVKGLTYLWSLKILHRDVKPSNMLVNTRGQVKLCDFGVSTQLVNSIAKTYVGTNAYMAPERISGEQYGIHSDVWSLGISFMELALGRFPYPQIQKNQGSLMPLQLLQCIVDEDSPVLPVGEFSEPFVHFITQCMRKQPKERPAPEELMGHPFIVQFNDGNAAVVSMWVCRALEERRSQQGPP

[9] = target: Tyrosine-protein kinase Fyn (Homo sapiens) (UniProt P06241); assay: Selectivity interaction (Kinase panel (Invitrogen)) EUB0000639a FYN; conditions: at 200 nM
[10] = target: Protein kinase C delta type (Homo sapiens) (UniProt Q05655); assay: Selectivity interaction (KinomeScan (DiscoverX)) EUB0000655a PRKCD; conditions: at 10 µM
Protein kinase C delta type (Homo sapiens), sequence (Q05655 whole entry, looked up): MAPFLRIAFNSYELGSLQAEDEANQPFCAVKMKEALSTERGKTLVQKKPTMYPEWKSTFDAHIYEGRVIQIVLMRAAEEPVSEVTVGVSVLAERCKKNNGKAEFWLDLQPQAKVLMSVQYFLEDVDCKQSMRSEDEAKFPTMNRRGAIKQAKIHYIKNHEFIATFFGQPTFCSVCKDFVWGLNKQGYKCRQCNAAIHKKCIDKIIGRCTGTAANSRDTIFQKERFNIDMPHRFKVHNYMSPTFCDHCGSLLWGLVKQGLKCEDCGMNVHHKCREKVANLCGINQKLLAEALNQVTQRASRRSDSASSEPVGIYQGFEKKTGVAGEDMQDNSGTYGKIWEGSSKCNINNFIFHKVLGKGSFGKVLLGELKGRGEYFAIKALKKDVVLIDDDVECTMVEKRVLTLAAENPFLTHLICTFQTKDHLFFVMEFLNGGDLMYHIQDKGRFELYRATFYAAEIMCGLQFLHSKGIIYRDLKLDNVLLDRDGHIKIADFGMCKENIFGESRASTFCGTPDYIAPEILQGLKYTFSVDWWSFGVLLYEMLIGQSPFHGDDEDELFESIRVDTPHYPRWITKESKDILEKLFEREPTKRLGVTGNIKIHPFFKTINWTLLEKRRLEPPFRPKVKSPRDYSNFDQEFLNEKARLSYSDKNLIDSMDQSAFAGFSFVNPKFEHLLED

Vascular endothelial growth factor receptor 1 (Homo sapiens), sequence (P17948 whole entry): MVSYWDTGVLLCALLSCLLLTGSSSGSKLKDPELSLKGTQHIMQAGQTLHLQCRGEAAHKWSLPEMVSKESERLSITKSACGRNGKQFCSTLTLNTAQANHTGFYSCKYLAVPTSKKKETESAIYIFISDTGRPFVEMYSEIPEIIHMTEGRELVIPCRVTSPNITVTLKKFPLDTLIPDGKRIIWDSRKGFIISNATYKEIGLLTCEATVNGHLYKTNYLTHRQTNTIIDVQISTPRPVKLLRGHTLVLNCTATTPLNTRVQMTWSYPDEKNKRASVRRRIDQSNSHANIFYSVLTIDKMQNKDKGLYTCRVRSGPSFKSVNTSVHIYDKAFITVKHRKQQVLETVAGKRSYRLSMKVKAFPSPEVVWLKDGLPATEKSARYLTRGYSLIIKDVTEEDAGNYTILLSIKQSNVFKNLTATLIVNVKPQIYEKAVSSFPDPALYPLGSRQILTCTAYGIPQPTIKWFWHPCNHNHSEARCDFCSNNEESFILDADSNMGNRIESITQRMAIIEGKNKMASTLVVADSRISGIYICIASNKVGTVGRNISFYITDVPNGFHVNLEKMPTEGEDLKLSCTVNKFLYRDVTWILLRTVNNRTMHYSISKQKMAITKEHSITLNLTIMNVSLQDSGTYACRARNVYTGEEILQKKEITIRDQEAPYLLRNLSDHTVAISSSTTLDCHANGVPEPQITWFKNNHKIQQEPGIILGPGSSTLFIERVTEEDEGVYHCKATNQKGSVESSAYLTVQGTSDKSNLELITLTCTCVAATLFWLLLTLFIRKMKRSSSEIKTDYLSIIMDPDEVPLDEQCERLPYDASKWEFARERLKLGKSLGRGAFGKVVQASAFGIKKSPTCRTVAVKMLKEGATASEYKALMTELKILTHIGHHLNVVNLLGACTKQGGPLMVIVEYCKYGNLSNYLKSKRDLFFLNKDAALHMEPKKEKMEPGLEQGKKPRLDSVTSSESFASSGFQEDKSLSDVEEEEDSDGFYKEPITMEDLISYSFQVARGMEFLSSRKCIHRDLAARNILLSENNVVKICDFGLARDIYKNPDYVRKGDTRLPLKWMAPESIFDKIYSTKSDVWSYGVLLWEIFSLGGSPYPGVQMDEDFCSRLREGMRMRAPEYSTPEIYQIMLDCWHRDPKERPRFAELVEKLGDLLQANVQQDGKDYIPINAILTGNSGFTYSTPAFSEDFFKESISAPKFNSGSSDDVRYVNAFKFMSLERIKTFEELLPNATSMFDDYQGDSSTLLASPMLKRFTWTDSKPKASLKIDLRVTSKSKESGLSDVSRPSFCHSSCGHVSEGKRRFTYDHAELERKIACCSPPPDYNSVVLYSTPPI
Casein kinase I isoform alpha, sequence (P48729 2-337 limits assumed): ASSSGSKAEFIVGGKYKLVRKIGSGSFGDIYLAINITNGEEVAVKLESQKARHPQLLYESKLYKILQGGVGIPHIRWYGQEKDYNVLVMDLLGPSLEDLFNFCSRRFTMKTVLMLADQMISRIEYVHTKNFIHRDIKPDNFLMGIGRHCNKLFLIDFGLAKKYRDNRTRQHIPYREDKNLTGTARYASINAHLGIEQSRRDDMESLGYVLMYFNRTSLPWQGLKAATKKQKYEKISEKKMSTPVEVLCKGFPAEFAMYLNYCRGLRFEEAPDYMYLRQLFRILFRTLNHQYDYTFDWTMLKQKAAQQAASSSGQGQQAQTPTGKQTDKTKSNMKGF
Acetylcholinesterase (Homo sapiens), sequence (P22303 whole entry): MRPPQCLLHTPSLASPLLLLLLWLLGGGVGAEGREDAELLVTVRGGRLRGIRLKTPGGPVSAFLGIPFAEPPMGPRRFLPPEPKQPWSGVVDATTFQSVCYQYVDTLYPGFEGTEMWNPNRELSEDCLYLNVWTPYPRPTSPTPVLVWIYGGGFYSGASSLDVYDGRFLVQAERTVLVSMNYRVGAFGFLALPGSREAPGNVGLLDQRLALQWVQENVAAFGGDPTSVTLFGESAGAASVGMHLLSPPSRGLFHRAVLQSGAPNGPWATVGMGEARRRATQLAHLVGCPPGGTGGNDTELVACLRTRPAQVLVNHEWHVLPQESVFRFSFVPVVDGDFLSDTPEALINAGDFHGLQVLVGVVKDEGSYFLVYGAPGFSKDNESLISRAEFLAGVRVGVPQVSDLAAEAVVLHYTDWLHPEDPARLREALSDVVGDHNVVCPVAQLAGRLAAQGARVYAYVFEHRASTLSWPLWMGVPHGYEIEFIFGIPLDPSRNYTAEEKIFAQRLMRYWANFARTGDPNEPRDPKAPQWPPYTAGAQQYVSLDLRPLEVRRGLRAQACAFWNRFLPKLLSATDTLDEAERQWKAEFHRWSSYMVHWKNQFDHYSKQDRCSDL
Tyrosine-protein kinase Fyn (Homo sapiens), sequence (P06241 2-537 limits assumed): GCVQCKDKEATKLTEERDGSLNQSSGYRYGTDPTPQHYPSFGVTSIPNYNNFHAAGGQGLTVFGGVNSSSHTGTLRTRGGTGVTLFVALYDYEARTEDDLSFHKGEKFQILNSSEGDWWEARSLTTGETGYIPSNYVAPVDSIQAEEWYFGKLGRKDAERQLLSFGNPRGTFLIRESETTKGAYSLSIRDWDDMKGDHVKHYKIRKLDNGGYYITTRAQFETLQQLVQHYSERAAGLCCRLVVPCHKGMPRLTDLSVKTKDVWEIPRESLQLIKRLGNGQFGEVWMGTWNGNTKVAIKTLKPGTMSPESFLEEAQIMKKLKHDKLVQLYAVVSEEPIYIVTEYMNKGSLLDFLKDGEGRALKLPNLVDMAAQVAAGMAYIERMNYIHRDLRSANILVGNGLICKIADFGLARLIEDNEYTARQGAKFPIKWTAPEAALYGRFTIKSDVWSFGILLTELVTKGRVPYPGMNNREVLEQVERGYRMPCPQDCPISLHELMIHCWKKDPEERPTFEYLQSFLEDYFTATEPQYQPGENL
RAF proto-oncogene serine/threonine-protein kinase (Homo sapiens), sequence (P04049 whole entry): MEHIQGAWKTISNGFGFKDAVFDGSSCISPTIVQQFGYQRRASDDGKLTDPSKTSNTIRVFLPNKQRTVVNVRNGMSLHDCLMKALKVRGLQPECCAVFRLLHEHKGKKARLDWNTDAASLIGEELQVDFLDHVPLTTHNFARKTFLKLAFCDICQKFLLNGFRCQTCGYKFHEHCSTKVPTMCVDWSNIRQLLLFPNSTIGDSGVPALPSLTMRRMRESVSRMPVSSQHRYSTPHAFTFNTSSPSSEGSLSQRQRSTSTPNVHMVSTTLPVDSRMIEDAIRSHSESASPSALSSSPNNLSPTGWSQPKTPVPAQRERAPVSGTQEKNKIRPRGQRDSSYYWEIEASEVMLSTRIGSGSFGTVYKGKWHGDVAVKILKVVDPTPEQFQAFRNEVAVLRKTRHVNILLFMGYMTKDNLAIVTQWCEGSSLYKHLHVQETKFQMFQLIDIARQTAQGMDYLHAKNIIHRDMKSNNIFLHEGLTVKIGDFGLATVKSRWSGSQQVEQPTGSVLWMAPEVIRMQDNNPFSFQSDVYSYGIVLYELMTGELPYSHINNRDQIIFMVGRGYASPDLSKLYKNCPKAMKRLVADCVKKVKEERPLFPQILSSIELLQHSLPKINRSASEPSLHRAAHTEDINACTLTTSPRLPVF
Calcium/calmodulin-dependent protein kinase type 1 (Homo sapiens), sequence (Q14012 whole entry, looked up): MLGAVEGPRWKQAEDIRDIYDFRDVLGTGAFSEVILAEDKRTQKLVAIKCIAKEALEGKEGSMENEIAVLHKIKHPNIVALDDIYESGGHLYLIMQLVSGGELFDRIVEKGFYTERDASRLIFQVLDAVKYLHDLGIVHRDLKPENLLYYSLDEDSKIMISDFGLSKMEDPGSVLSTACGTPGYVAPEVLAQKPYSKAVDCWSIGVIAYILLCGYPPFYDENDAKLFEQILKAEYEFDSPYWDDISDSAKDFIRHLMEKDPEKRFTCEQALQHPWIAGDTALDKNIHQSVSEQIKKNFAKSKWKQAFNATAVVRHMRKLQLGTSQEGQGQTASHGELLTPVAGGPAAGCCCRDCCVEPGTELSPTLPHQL

C=CC(=O)Nc1ccc(C(=O)Nc2[nH]nc3c2CN(C(=O)N[C@H](CN(C)C)c2ccccc2)C3(C)C)cc1
% of engagement [1]: -2%

COCC(=O)NC/C=C/c1ccc2ncnc(Nc3ccc(Oc4ccc(C)nc4)c(C)c3)c2c1 [CP-724714]
% of control [2]: 100%

C=CC(=O)Nc1cc(-n2c(=O)ccc3cnc4ccc(-c5ccc(NS(C)(=O)=O)cc5)cc4c32)ccc1C
% of control ([3]; at 1 µM): 85% | % of control ([3]; at 10 µM): 100%

O=C(NOC[C@H](O)CO)c1ccc(F)c(F)c1Nc1ccc(I)cc1F
% of control [4]: 92%

Cc1cc(C)cc([C@@H]2c3cc(C)ccc3NC(=O)CN2C(=O)c2ccc(Br)s2)c1
% of inhibition [5]: 7%

C=CC(=O)Nc1cccc(C(=O)Nc2ccc(Nc3cc(-c4[nH]c(SC)nc4C)ccn3)cc2)c1
% of control ([6]; at 1 µM): 84% | % of control ([6]; at 5 µM): 66%

N#Cc1cccc(-c2c[nH]c3ncnc(N4CCOCC4)c23)c1
% of control [7]: 89%

CNC(=O)Nc1ccc(-c2nc(N3CC4CCC(C3)O4)c3cnn(C4CCC5(CC4)OCCO5)c3n2)cc1
% of control [8]: 93%

CC[C@@H]1[C@H](F)C(=O)N[C@@H]1COc1nccc2cc(C(N)=O)c(OC)cc12 [ZIMLOVISERTIB]
% of inhibition [9]: 16.4%

CN(C)CCOc1ccc(-c2nc(-c3ccncc3)c(-c3ccc4c(c3)CC/C4=N\O)[nH]2)cc1
% of control [10]: 89%
